# Reference: publication PMC6811774, “Potent, selective, and subunit‐dependent activation of TRPC5 channels by a xanthine derivative” (British Journal of Pharmacology, 2019)
# “And” between values parts separate entries of the source, which are not always exact repeats. Identical values can stand only once. Like-named read-outs stand apart in the source and are kept apart here.
# Target: T1, TRPC5:C5 channels (hTRPC5) (Homo sapiens, UniProt Q9UL62)
# T1 construct: expressed in transfected cells
# T1 sequence (Q9UL62 1-973): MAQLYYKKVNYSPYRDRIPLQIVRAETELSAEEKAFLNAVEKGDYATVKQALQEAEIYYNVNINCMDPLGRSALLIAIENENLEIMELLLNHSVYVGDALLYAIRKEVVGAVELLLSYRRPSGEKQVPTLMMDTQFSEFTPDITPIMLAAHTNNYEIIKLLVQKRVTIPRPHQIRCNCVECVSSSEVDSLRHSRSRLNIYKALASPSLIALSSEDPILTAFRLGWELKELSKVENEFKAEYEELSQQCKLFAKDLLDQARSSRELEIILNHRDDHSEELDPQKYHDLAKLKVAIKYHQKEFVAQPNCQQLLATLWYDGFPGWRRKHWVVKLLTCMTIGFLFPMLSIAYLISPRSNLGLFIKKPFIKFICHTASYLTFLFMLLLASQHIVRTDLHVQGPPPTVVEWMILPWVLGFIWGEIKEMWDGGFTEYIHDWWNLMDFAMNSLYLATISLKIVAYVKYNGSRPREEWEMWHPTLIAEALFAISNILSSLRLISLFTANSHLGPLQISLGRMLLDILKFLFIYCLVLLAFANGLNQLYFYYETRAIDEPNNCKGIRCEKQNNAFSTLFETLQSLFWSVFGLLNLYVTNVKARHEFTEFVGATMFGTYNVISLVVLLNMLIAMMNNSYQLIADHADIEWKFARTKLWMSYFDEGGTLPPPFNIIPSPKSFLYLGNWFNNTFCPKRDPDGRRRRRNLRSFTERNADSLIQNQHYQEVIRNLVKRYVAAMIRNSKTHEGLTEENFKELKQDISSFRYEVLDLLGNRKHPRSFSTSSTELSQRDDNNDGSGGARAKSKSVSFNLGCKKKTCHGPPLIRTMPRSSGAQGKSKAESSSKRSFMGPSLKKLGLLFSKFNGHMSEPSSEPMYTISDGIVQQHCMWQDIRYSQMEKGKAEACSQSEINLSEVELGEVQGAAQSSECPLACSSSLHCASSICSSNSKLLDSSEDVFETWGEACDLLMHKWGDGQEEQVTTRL
# Test: [Ca2+]i measurement (Fura-2, FlexStation) in (Tet+) HEK T-REx cells expressing hTRPC5
# Format: cell-based
# Description: HEK T‐REx™ cell line was transfected with TRPC5‐SYFP2 or TRPC4‐SYFP2 using FuGENE® HD transfection reagent. After 48 hr, cells were put under antibiotic selection using 400 μg·ml^−1 zeocin and 10 μg·ml^−1 blasticidin S (Invivogen, San Diego, California, USA). Medium changes were carried out regularly to remove dead cells. HEK T‐REx cells expressing tetracycline‐inducible human TRPC5, TRPC4–C1, and TRPC5–C1 were created as described previously (Akbulut et al., 2015; Ludlow et al., 2017; Rubaiy, Ludlow, Henrot, et al., 2017). TRPC5–C1 and TRPC4–C1 concatemers allow expression of functional channels with defined 2:2 stoichiometry that display ion permeability and current–voltage relationships distinct from those of homomeric TRPC4:C4 or TRPC5:C5 channels and consistent with those obtained upon co‐expression of TRPC1 with TRPC4 or TRPC5 (Ludlow et al., 2017; Rubaiy, Ludlow, Bon, & Beech, 2017; Rubaiy, Ludlow, Henrot, et al., 2017). Cells were cultured in DMEM‐F12 GlutaMAX (Invitrogen, Paisley, UK) containing 10% FBS (Sigma‐Aldrich, Gillingham, UK), with the addition of blasticidin (10 μg·ml^−1) and zeocin (400 μg·ml^−1) to maintain the stable incorporation of the tetracycline repressor and the channel of interest, respectively. Expression of proteins was induced by the addition of tetracycline (1 μg·ml^−1, 24 hr). Cells were maintained in a humidified incubator with 5% CO2 at 37°C. HEK 293 cells stably expressing tetracycline‐regulated human http://www.guidetopharmacology.org/GRAC/ObjectDisplayForward?objectId=494 were prepared similarly and have also been described previously (McHugh, Flemming, Xu, Perraud, & Beech, 2003). For experiments using transient co‐expression of TRPC1 and TRPC5, HEK cells at 40–60% confluency were transfected with pIRES2‐AcGFP1 and pIRES2‐DsRed‐Express2 plasmids containing human TRPC1 and TRPC5, respectively, using Lipofectamine 3000 (ThermoFisher Scientific, Yokohama, Japan). All experiments using transient expression were performed within 48 hr after transfection. A498 cells were cultured in Minimum Essential Medium containing Earle's salts (ThermoFisher Scientific, Loughborough, UK), supplemented with 10% FBS and penicillin–streptomycin (100 units per ml^−1, 100 μg·ml^−1; ThermoFisher Scientific, Loughborough, UK). CHO cells stably expressing http://www.guidetopharmacology.org/GRAC/ObjectDisplayForward?objectId=510 were maintained in Ham's Nutrient Mixture F12 (ThermoFisher Scientific, Loughborough, UK) supplemented with 10% FBS, penicillin–streptomycin, and 1 mg·ml^−1 G418 (InvivoGen, San Diego, California, USA). For experiments using hTRPC3 and hTRPC6, WT HEK 293 cells were transfected with hTRPC3 (Naylor et al., 2016) or hTRPC6 (cloned into pcDNA3) using jetPRIME® transfection reagent (VWR, Lutterworth, UK). […]
smiles,measurement,setting,value
Cn1c(=O)n(CCCO)c(=O)c2c1nc(Oc1ccc(Cl)c(OC(F)(F)F)c1)n2Cc1ccc(Cl)cc1 [AM237],Concentration leading to a sustained increase in [Ca2+]i,cells overexpressing TRPC5 or TRPC5-SYFP2,≥ 3 nM
same,EC50,"hTRPC5, response at 250–295 s vs baseline, read-out: EC50, activation (increase in [Ca2+]i)",20 nM
same,"Hill slope, activation",hTRPC5 concentration–response curve,1.7
same,EC50,"range over TRPC5 and TRPC5-SYFP2 experiments, read-out: EC50, TRPC5:C5 activation in [Ca2+]i assay (summary range)",15 to 20 nM and 10 to 20 nM
